In patent US11439606B2 (priority 2018, dated 2022):

Legend:
Format in all cases: in vivo, rat
type I diabetic rats [1] = experiment: Glycemia in STZ-induced type I diabetic rats treated with DMF; conditions: DMF 8 mg/kg daily ip
type I diabetic rats [2] = experiment: Cholesterol and triglyceride levels in type I diabetic rats treated with DMF; conditions: versus untreated rats and known levels in non-diabetic rats; DMF 8 mg/kg daily ip
Description: (§1) Controlled test results were performed by, and under the direction of, the inventors, involving four type I diabetic rats, two of which were female and two were male, for the purpose of measuring the effectiveness of administering treatment in accordance with the present invention.

type I diabetic rats [3] = experiment: Renal function tests (urea, serum creatinine) in type I diabetic rats treated with DMF; conditions: DMF 8 mg/kg daily ip
Description: as §1

type I diabetic rats [4] = experiment: Liver function tests (bilirubin, aspartate aminotransferase, gamma glutamyltransferase, alkaline phosphatase) in type I diabetic rats treated with DMF; conditions: versus untreated control rats, DMF 8 mg/kg daily ip
Description: as §1

[5] = first rat, STZ-induced diabetes, average glycemia 440 mg % before treatment

dimethylformamide [DMF] was tested, and the “glycemia level versus untreated rats (FIG. 1)” value (type I diabetic rats [1]; female and male type I diabetic rats) was “remaining significantly below female and male rats not receiving treatment”, the “blood glucose level after seven days of treatment” value (type I diabetic rats [1]; [5]) was “below 100 mg %” and the “blood glucose level four days after treatment” value (type I diabetic rats [1]; [5]) was 94 mg %. The “blood glucose level after seven days of treatment” value (type I diabetic rats [1]; second rat, STZ-induced diabetes, average glycemia 526 mg % before treatment) was “below 120 mg %”, the “cholesterol levels (FIG. 3)” value (type I diabetic rats [2]) was “somewhat elevated” and the “triglycerides levels (FIG. 3)” value (type I diabetic rats [2]) was “significantly lowered”. For the same substance, the “levels of serum creatinine (FIG. 4)” value (type I diabetic rats [3]; versus untreated type I diabetic rats and known levels in non-diabetic rats) was “not only lower than the untreated, type I diabetic control group, but also lower than known levels of serum creatinine in non-diabetic female and male rats”, the “levels of urea (FIG. 4)” value (type I diabetic rats [3]; versus untreated type I diabetic rats) was “below that of the untreated type I diabetic rats” and the “liver function (FIG. 5)” value (type I diabetic rats [4]) was “either improved or not substantially different”.
